Series [1] deals with FADD-deficient variant of human Jurkat T cells. The series can be described thus: Necroptosis inhibition in FADD-deficient Jurkat T cells treated with TNF-α, ATP-based viability. The series is classed as cell-based. The following applies: for EC50: Jurkat, 10 ng/mL human TNF-α, 24 hours; for necroptosis inhibitory activity in words: TNF-α treated FADD-deficient Jurkat T cells. On the procedure: Stock solutions (30 mM) in DMSO were initially prepared and then diluted with DMSO to give testing solutions, which were added to each test well. The final DMSO concentration was 0.5%. Eleven compound test concentrations (0.030-100 μM) were used. Each concentration was done in duplicate.
Cell viability assessments were performed using a commercial luminescent ATP-based assay kit (CellTiter-Glo, Promega, Madison, Wis.) according to the manufacturer's instructions. Briefly, 40 μL of the cell lysis/ATP detection reagent was added to each well. Plates were incubated on a rocking platform for 10 minutes at room temperature and luminescence was measured using a Wallac Victor 3 plate-reader (Perkin Elmer, Wellesley, Mass.). Cell viability was expressed as a ratio of the signal in the well treated with TNF-α and compound to the signal in the well treated with compound alone. […] EC50 values were calculated using nonlinear regression analysis of sigmoid dose-response (variable slope) curves from plots of log[I] verses viability values.

Series [2] can be described thus: Microsome stability in pooled mouse liver microsomes. It is filed as in vitro ADME. The following applies: 3 μM compound, 0.5 mg/mL microsome protein, 1 mM NADPH; for microsomal CLint at 3 μM: in vitro intrinsic clearance, N=3, read-out: CLint (μL/minutes/mg protein). Here is the method: Microsome stability was determined in pooled mouse liver microsomes. Test compound (3 μM final concentration) along with 0.5 mg/mL microsome protein and 1 mM NADPH was incubated for 0, 5, 15, 30 and 60 minutes. Incubation of test compound and microsomes in the absence of NADPH served as a negative control. The samples were quenched with methanol and centrifuged for 20 minutes at 2500 rpm to precipitate proteins. Sample supernatants were analyzed (N=3) by LC/MS. The In peak area ratio (compound peak area/internal standard peak area) was plotted against time and the slope of the line determined to give the elimination rate constant [k=(−1)(slope)]. The half life (t1/2 in minutes), and the in vitro intrinsic clearance (CLint in μL/min/mg protein) were calculated according to the following equations, where V=incubation volume in μL/mg protein: […]

[3] abbreviates: Table 2, Formula (I-a), standard deviation <10%.

Experimental findings from US8278344B2, “Heterocyclic inhibitors of necroptosis” (The Brigham and Women's Hospital, Inc., priority 2007, dated 2012) are described below.

On to `Cn1cccc1C(=O)NCc1c(F)cccc1Cl` [Compound 84], for which a half-maximal effect in series [1] (Table 5, pyrrole compounds) (EC50) was put at 900 nM. In series [2], the half-life at 3 μM was 17.2 min and the microsomal CLint at 3 μM was found to be 80.6 ± 4.4 µL/min/mg.
`Cn1cc(C#N)cc1C(=O)NCc1c(F)cccc1Cl` [Compound 98] yielded an EC50 in series [1] (Table 5, pyrrole compounds) of more than 20000 nM.
In the case of `CCCCC(NC(=O)c1cccn1C(C)C)c1c(F)cccc1Cl` (racemic) [Compound 92], the EC50 in series [1] (Table 5, pyrrole compounds) was more than 20000 nM.
`CC(C)n1cc(C#N)cc1C(=O)NCc1c(F)cccc1Cl` [Compound 99] gave an EC50 in series [1] (Table 5, pyrrole compounds) of more than 20000 nM.
Consider `CC(c1ccccc1)n1cccc1C(=O)NCc1c(F)cccc1Cl` (stereo not drawn) [Compound 87], for which the EC50 in series [1] (Table 5, pyrrole compounds) was more than 20000 nM.
Take `CCn1c(C#N)ccc1C(=O)NCc1c(F)cccc1Cl` [Compound 95]: in series [1] (Table 5, pyrrole compounds), the EC50 stood at 1900 nM.
On to `CN(Cc1c(F)cccc1Cl)C(=O)c1cccn1C` [Compound 88], for which the EC50 in series [1] (Table 5, pyrrole compounds) is more than 20000 nM.
Consider `O=C(NCc1c(F)cccc1Cl)c1snnc1-c1ccccc1` [Compound 37], for which the EC50 in series [1] (setting [3]) is more than 100000 nM.
In series [1] (setting [3]), `O=C(NCc1c(F)cccc1F)c1snnc1C1CC1` [Compound 39] came in with an EC50 of 1500 nM.
`CC(C)n1c(C#N)ccc1C(=O)NCc1c(F)cccc1Cl` [Compound 96] gave an EC50 in series [1] (Table 5, pyrrole compounds) of 1400 nM.
In series [1] (Table 5, pyrrole compounds), `Cc1ccn(C(C)C)c1C(=O)NCc1c(F)cccc1Cl` [Compound 83] had an EC50 of 7800 nM.
`CC(C)n1cccc1C(=O)N[C@@H](C)c1c(F)cccc1Cl` [Compound 90]: the EC50 in series [1] (Table 5, pyrrole compounds) came out at 520 nM.
Compound `Fc1cccc(Cl)c1CNCc1snnc1C1CC1` [Compound 13] displayed an EC50 in series [1] (Table 3, Formula (I-b)) of more than 100000 nM. Also, the “necroptosis inhibitory activity in words” value in series [1] was “inactive”.
Turning to `CCn1c(Br)ccc1C(=O)NCc1c(F)cccc1Cl` [Compound 93], the EC50 in series [1] (Table 5, pyrrole compounds) was 2400 nM.
`CC(C)(C)c1nnsc1C(=O)NCc1c(F)cccc1Cl` [Compound 36] gave an EC50 in series [1] (setting [3]) of 18000 nM.
Turning to `CC(NC(=O)c1cccn1C(C)C)c1c(F)cccc1Cl` (racemic) [Compound 89], in series [1] (Table 5, pyrrole compounds), it took 2100 nM to reach a half-maximal effect (EC50).
Compound `Cn1c(Cl)ccc1C(=O)NCc1c(F)cccc1Cl` [Compound 78] showed an EC50 in series [1] (Table 5, pyrrole compounds) of 740 nM. Also, in series [2], the half-life at 3 μM is 15.4 min and the microsomal CLint at 3 μM is 89.8 ± 3 µL/min/mg.
For `Cn1c(C#N)ccc1C(=O)NCc1c(F)cccc1Cl` [Compound 94] the same measures were 340 nM, 42.3 min and 32.8 ± 2.2 µL/min/mg.
As to `CC(C)n1cccc1C(=O)N[C@H](C)c1c(F)cccc1Cl` [Compound 91], the half-maximal effective concentration (EC50) in series [1] (Table 5, pyrrole compounds) was more than 20000 nM.
For `O=C(NCc1c(F)cccc1Cl)c1ccc[nH]1` [Compound 80], the EC50 in series [1] (Table 5, pyrrole compounds) was more than 20000 nM.
Consider `C[C@H](NC(=O)c1ccc(C#N)n1C)c1c(F)cccc1Cl` [Compound 97], for which, in series [2], the half-life at 3 μM came out at 236 min and the microsomal CLint at 3 μM turned out to be 5.9 ± 2.5 µL/min/mg.
In series [1] (Table 5, pyrrole compounds), `Cc1cc[nH]c1C(=O)NCc1c(F)cccc1Cl` [Compound 81] registered an EC50 of 4900 nM.
In series [1] (setting [3]), `O=C(NCc1c(F)cccc1C(F)(F)F)c1snnc1C1CC1` [Compound 44] displayed an EC50 of more than 100000 nM.
`O=C(NCc1c(F)cccc1Cl)c1snnc1C1CCCCC1` [Compound 35] displayed an EC50 in series [1] (setting [3]) of 6000 nM.
`O=C(NCc1cccc2ccccc12)c1snnc1C1CC1` [Compound 45]: the EC50 in series [1] (setting [3]) is more than 100000 nM.
`CC(C)n1cccc1C(=O)NCc1c(F)cccc1Cl` [Compound 85] yielded an EC50 in series [1] (Table 5, pyrrole compounds) of 440 nM.
Take `O=C(NCc1c(F)cccc1Cl)c1snnc1C1CCCC1` [Compound 34]: the EC50 in series [1] (setting [3]) came to 1900 nM.
In series [1] (setting [3]), `O=C(NCc1ccccc1F)c1snnc1C1CC1` [Compound 40] came in with an EC50 of 1500 nM.
The compound `O=C(NC(=O)c1c(F)cccc1Cl)c1snnc1C1CC1` [Compound 16] gave an EC50 in series [1] (Table 3, Formula (I-b)) of more than 100000 nM. Further, the “necroptosis inhibitory activity in words” value in series [1] is “inactive”.
In the case of `Cc1ccn(C)c1C(=O)NCc1c(F)cccc1Cl` [Compound 82], the EC50 in series [1] (Table 5, pyrrole compounds) was more than 20000 nM.
The compound `Cc1cccc(Cl)c1CNC(=O)c1snnc1C1CC1` [Compound 41] displayed an EC50 in series [1] (setting [3]) of 10000 nM.
The same measure, in the same setting: the figure for `O=C(NCc1c(F)cccc1Cl)c1snnc1C1CCC1` [Compound 33] is 600 nM.
On to `O=C(NCc1c(F)cccc1Cl)c1cccn1Cc1ccccc1` [Compound 86], for which, in series [1] (Table 5, pyrrole compounds), the EC50 is more than 20000 nM.
